Experimental data published in the NIST ThermoML archive (doi:10.1016/j.jct.2017.07.008).
Where “and” joins values, the source holds several entries; their conditions need not be identical. Equal entries are not always repeated.

Conditions: for mass density / viscosity / speed of sound: Liquid; for mass density: Vibrating tube method; for surface tension liquid-gas: Drop volume; for viscosity: Capillary tube (Ostwald / Ubbelohde) method; for speed of sound: Frequency=3 MHz, Single path-length method

O=Cc1cccs1 [2-thiophenealdehyde]
Conditions	mass density	speed of sound [m/s]	viscosity [mPa·s]
298.15 K, 20000 kPa	1228.95 kg/m3	–	–
298.15 K, 25000 kPa	1231.69 kg/m3	–	–
298.15 K, 30000 kPa	1234.36 kg/m3	–	–
298.15 K, 35000 kPa	1236.96 kg/m3	–	–
298.15 K, 40000 kPa	1239.51 kg/m3	–	–
298.15 K, 45000 kPa	1242 kg/m3	–	–
298.15 K, 50000 kPa	1244.43 kg/m3	–	–
298.15 K, 55000 kPa	1246.81 kg/m3	–	–
298.15 K, 60000 kPa	1249.14 kg/m3	–	–
298.15 K, 65000 kPa	1251.43 kg/m3	–	–
300.65 K, 100 kPa	1214.8 kg/m3	1454	1.96
303.15 K, 100 kPa	1212.28 kg/m3 and 1212.29 kg/m3	1445.7	1.875
303.15 K, 2000 kPa	1213.48 kg/m3	–	–
303.15 K, 5000 kPa	1215.34 kg/m3	–	–
303.15 K, 7000 kPa	1216.56 kg/m3	–	–
303.15 K, 10000 kPa	1218.37 kg/m3	–	–
303.15 K, 15000 kPa	1221.32 kg/m3	–	–
303.15 K, 20000 kPa	1224.19 kg/m3	–	–
303.15 K, 25000 kPa	1226.98 kg/m3	–	–
303.15 K, 30000 kPa	1229.71 kg/m3	–	–
303.15 K, 35000 kPa	1232.36 kg/m3	–	–
303.15 K, 40000 kPa	1234.96 kg/m3	–	–
303.15 K, 45000 kPa	1237.49 kg/m3	–	–
303.15 K, 50000 kPa	1239.97 kg/m3	–	–
303.15 K, 55000 kPa	1242.4 kg/m3	–	–
303.15 K, 60000 kPa	1244.77 kg/m3	–	–
303.15 K, 65000 kPa	1247.09 kg/m3	–	–
305.65 K, 100 kPa	1209.76 kg/m3	1437.3	1.797
308.15 K, 100 kPa	1207.25 kg/m3	1429	1.728
308.15 K, 2000 kPa	1208.47 kg/m3	–	–
308.15 K, 5000 kPa	1210.38 kg/m3	–	–
308.15 K, 7000 kPa	1211.63 kg/m3	–	–
308.15 K, 10000 kPa	1213.48 kg/m3	–	–
308.15 K, 15000 kPa	1216.49 kg/m3	–	–
308.15 K, 20000 kPa	1219.43 kg/m3	–	–
308.15 K, 25000 kPa	1222.28 kg/m3	–	–
308.15 K, 30000 kPa	1225.06 kg/m3	–	–
308.15 K, 35000 kPa	1227.77 kg/m3	–	–
308.15 K, 40000 kPa	1230.42 kg/m3	–	–
308.15 K, 45000 kPa	1233 kg/m3	–	–
308.15 K, 50000 kPa	1235.53 kg/m3	–	–
308.15 K, 55000 kPa	1238 kg/m3	–	–
308.15 K, 60000 kPa	1240.41 kg/m3	–	–
308.15 K, 65000 kPa	1242.78 kg/m3	–	–
310.65 K, 100 kPa	1204.73 kg/m3	1420.7	1.654
313.15 K, 100 kPa	1202.21 kg/m3	1412.4	1.59
313.15 K, 2000 kPa	1203.46 kg/m3	–	–
313.15 K, 5000 kPa	1205.41 kg/m3	–	–
313.15 K, 7000 kPa	1206.7 kg/m3	–	–
313.15 K, 10000 kPa	1208.59 kg/m3	–	–
313.15 K, 15000 kPa	1211.67 kg/m3	–	–
313.15 K, 20000 kPa	1214.67 kg/m3	–	–
313.15 K, 25000 kPa	1217.59 kg/m3	–	–
313.15 K, 30000 kPa	1220.43 kg/m3	–	–
313.15 K, 35000 kPa	1223.19 kg/m3	–	–
313.15 K, 40000 kPa	1225.89 kg/m3	–	–
313.15 K, 45000 kPa	1228.52 kg/m3	–	–
313.15 K, 50000 kPa	1231.1 kg/m3	–	–
313.15 K, 55000 kPa	1233.61 kg/m3	–	–
313.15 K, 60000 kPa	1236.07 kg/m3	–	–

Conditions	surface tension liquid-gas [mN/m]
300.65 K	45.68
303.15 K	45.4
305.65 K	45.08
308.15 K	44.75
310.65 K	44.48
313.15 K	44.17
